Experimental data published in patent publication US6573084B1, “Process for the deacylation of cyclic lipopeptides” (Fujisawa Pharmaceutical Co., Ltd., priority 1996, dated 2003).
Where two headings read alike, the source gives them in different places. Starred links: 1 amine or outer side, 2 acyl side, 3 side chain; linkers in the order of their positions; H or OH if unused. Positions of bridges follow the written chain, without caps; N, C: chain ends. Non-standard residues stand in square brackets, D forms with d. Residues, ends and D or L forms follow the SMILES beside them. ξ: configuration not given here. *: point of attachment. X1 = O=C(C(N[*:1])C(O)C(O)c1ccc(O)c(OS(=O)(=O)O)c1)[*:2]; ξOrn(4,5-diOH) = O=C(C(CC(O)C(O)N[*:3])N[*:1])[*:2]; X4 = CCCCCCCCCCCCCC(CC(=O)[*:1])O[*:2]; ξPro(3ξ-OH,4ξ-Me) = CC1CNC(C(=O)O)C1O; X2 = NC(=O)CC(O)C(N[*:1])C(=O)[*:2]; Palmitoyl = CCCCCCCCCCCCCCCC(=O)*; X3 = O=C(C1C(O)CCN1[*:1])[*:2]; Hyp = O=C(O)[CH]1C[CH](O)CN1; Orn = NCCC[CH](N)C(=O)O

How the values were obtained:
[1] = tested on: acylase produced by Streptomyces sp. No. 6907; experiment: Deacylation of cyclic lipopeptide substrates by the acylase of Streptomyces sp. No. 6907 (HPLC, Lineweaver-Burk, substrate specificity); assay type: biochemical; settings: for Vmax / Km: substrate of the acylase, fermentation broth of Streptomyces sp. No. 6907; for Km: read-out: Km value determined by the Lineweaver-Burk method
Procedure: To 700 μl of the fermentation broth of Streptomyces sp. No. 6907 obtained in Example 1-3 was added 100 μl of an aqueous solution of Substance FR901379 (100 mg/ml) (10 mg as Substance FR901379; 8.35 μmol) together with 100 μl of methanol and 100 μl of buffer (0.5 M potassium dihydrogen phosphate-disodium hydrogen phosphate buffer; pH 6.0), and the reaction was carried out at 30° C. for 30 minutes. The reaction was then stopped with 4% acetic acid and following addition of 2 ml of methanol, the mixture was filtered through a membrane filter (0.45 μm) to remove the macromolecular protein and other fraction and subjected to HPLC and the acylase activity of the skeletal substance FR179642 produced was monitored and assayed at 210 nm.
Using a variable wavelength UV detector (Shimadzu SPD-10A), a pump (Shimadzu LC-10AD) and an integrator (Shimadzu C-R6A) as the instrumentation, LiChrospher 100RP-18(e) (250 mm×4 mm i.d., particle diameter 5 μm(E.Merck)) as the stationary phase, and 3% acetonitrile/0.5% ammonium dihydrogen phosphate as the mobile phase, Substance FR179642 was eluted at a flow rate of 1 ml/min. The retention time of Substance FR179642 was about 6.3 minutes. The yield of Substance FR179642 as calculated from HPLC data was 560 μg (0.60 μmol).
(§1) To 100 μl of the fermentation broth of Streptomyces sp. No. 6907 obtained in Example 1-3 was added 100 μl of a dimethyl sulfoxide solution of Aculeacin A (100 mg/ml) (10 mg as Aculeacin A; 9.65 μmol) together with 500 μl of 1.2 M KCl-containing 500 mM potassium dihydrogen phosphate-disodium hydrogen phosphate buffer (pH 7.0) and 300 μl of water, and the reaction was carried out at 40° C. for 15 minutes. The reaction was then stopped with 1 ml of 4% acetic acid and following addition of 2 ml of methanol, the mixture was filtered through a membrane filter (0.45 μm) to remove the macromolecular protein and other fraction and subjected to HPLC and the acylase activity of the nuclear substance Aculeacin A produced was monitored at 210 nm and determined. Using a variable wavelength UV detector (Shimadzu SPD-10A), a pump (Shimadzu LC-10AD) and an integrator (Shimadzu C-R6A) as the instrumentation, LiChrospher 100RP-18(e) (250 mm×4 mm i.d., particle diameter 5 μm (E.Merck)) as the stationary phase, and 4% acetonitrile/1% ammonium dihydrogen phosphate as the mobile phase, nuclear substance Aculeacin A was eluted at a flow rate of 1 ml/min. The retention time of nuclear substance Aculeacin A was about 8.7 minutes. The yield of nuclear substance Aculeacin A as calculated from HPLC data was 370 μg (0.47 μmol).
as §1, with “Echinocandin B” for “Aculeacin A”, “Echinocandin B; 9.43” for “Aculeacin A; 9.65”, “monitored and assayed” for “monitored”, “nm.” for “nm and determined.”, “90” for “370”, “(0.11” for “(0.47”
To 2.0 ml of the fermentation broth of Streptomyces sp. […]

[2] = molecular target: T1, Actinoplanes utahensis-derived acylase (Actinoplanes utahensis, UniProt P29958); experiment: Deacylation of Substance FR901469 by Actinoplanes utahensis acylase (HPLC of Substance FR181131); assay type: biochemical, Actinoplanes utahensis IF013244; settings: produces Substance FR181131
T1 construct: To 20 ml of a fermentation broth of Actinoplanes utahensis IF013244; endogenous in cells; host or cells: Actinoplanes utahensis IF013244 (so in the source), whole fermentation broth
T1 sequence (P29958 230-786 limits assumed): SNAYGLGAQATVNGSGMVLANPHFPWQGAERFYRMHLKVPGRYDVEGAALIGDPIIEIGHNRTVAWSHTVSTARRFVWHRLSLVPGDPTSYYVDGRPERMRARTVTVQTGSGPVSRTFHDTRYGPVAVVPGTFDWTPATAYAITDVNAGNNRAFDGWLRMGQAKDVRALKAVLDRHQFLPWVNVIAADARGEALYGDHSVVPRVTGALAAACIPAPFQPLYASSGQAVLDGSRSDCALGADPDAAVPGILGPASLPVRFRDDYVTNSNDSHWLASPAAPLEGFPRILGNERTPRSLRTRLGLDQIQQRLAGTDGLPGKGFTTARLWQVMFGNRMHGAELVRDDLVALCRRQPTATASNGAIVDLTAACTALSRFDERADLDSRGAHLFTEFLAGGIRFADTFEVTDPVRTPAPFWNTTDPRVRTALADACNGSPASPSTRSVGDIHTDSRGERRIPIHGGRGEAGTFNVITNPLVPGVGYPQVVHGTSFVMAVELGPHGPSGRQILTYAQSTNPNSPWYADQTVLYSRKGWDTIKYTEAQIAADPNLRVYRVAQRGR
T1 sequence (P29958 35-214 limits assumed): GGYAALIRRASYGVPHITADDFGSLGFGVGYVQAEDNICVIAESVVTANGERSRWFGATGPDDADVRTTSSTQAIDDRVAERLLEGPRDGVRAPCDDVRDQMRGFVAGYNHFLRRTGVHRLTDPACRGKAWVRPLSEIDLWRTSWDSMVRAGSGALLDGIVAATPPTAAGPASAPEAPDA
Procedure: To 20 ml of a fermentation broth of Actinoplanes utahensis IF013244 as prepared by the procedure described in J. Antibiotics, Vol. 41, p. 1085-1092 ('88) was added 1 ml of an aqueous solution of Substance FR901469 (200 mg/ml) (0.2 g as Substance FR901469; 130 μmol) together with 2.9 g of disodium hydrogen phosphate and 60 ml of water, and the reaction was carried out at 60° C. for 24 hours. After completion of the reaction, the reaction mixture was filtered through a membrane filter (0.45 μm) to remove the high molecular protein and other fraction and purified by HPLC under monitoring for Substance FR181131 at 210 nm and the acylase activity was determined. Using a variable wavelength UV detector (Shimadzu SPD-10A), a pump (Shimadzu LC-10AD) and an integrator (Shimadzu C-R6A) as the instrumentation, YMC AM303 (250 mm×4 mm i.d., particle diameter 5 μm) as the stationary phase, and 12.5% acetonitrile/0.5% ammonium dihydrogen phosphate as the mobile phase, Substance FR181131 was eluted at a flow rate of 1 ml/min. The retention time of Substance FR181131 was about 7.3 minutes. The yield of Substance FR181131 as calculated from HPLC data was 80 mg (68 μmol).

Molecule | Substrate specificity (catalytic action of the acylase on the substrate) [1] | Vmax [1] | Km [1] | Substrate specificity (catalytic action of the acylase on the substrate) ([1]; listed as FR901469) | Substrate specificity (catalytic action of the acylase on the substrate) [2]
Aculeacin A | acts as a catalyst | 16.8 U/mg-protein | 279 µM |  | 
Echinocandin B | acts as a catalyst | 7.85 U/mg-protein | 146 µM |  | 
CCCCCCCCCCCCCC1CC(=O)NC(C(C)O)C(=O)NC(C)C(=O)NC(Cc2ccc(O)cc2)C(=O)NC(C(C)C)C(=O)N2CC(O)CC2C(=O)NC(C(C)O)C(=O)NC(C(C)O)C(=O)N2CCC(O)C2C(=O)NC(C(O)CC(N)=O)C(=O)NCC(=O)NC(C(C)O)C(=O)NC(CCCN)C(=O)O1 (stereo not drawn) [Substance FR901469] (TAYV[Hyp]TT[X3][X2]GT[Orn]; linker N-C via X4; configuration not given here) | exerts no catalytic action |  |  | does not act upon | exerts a catalytic action
CCCCCCCCCCCCCCCC(=O)NC1CC(O)C(O)NC(=O)C2C(O)C(C)CN2C(=O)C(C(O)CC(N)=O)NC(=O)C(C(O)C(O)c2ccc(O)c(OS(=O)(=O)O)c2)NC(=O)C2CC(O)CN2C(=O)C(C(C)O)NC1=O (stereo not drawn) [Substance FR901379] (Palmitoyl-[ξOrn(4,5-diOH)]T[Hyp][X1][X2][ξPro(3ξ-OH,4ξ-Me)]; lactam 1-C; configuration not given here) | acts as a catalyst | 14.3 U/mg-protein | 257 µM |  | 
